# Assay results: US20020084230A1, “Methods for screening drugs to predict tardive dyskinesia” (priority 1997, published 2002)
# Experiments:
# [1] = Hydrogen peroxide production assay (TCEP/DTNB, 96-well) in presence of Cu(II); details: for effect of chelating agent on hydrogen peroxide production by Vitamin C and antipsychotics: FIG. 7
# Procedure: To determine whether antipsychotics themselves could be the source of peroxidation in TD, we measured hydrogen peroxide formation in vitro using a novel 96-well assay developed specifically for that purpose. The production of hydrogen peroxide is assayed by a modification of a published method (Han, J. C. and Han, G. Y., Anal. Biochem. 220:5-10 (1994); Han, J., et al., Anal. Biochem. 234:107-109 (1996)). […] Antipsychotics (10 μM) were assayed for hydrogen peroxide formation in PBS (pH 7.4) in the presence of 10 μM Cu(II).
# Ten μM of antipsychotics and 10 μM of Cu(II) were co-incubated with 100 μM of a H2O2-trapping reagent, Tris(2-Carboxyethyl)-Phosphine Hydrochloride (TCEP), in PBS (pH 7.4) at 37° C. for 1 hour.
# [2] = test system: SOD and catalase; details: rats, chronic treatment; cited from earlier work
# [3] = test system: tardive dyskinesia; details: patients with TD; cited from earlier work
# [4] = test system: rats; assay: Rodent model of vacuous chewing (TD model); format: in vivo, rat; details: 24 weeks treatment, 12 weeks withdrawal, FIG. 12
# Procedure: There are two major animal models of TD. The first is a primate model of antipsychotic-induced dyskinesia. Ten to thirty percents of Cebus or Maccaca monkeys will develop clinical dyskinesia after long-term antipsychotic treatment. The second is a rodent model of vacuous chewing. In the rodent model, when the animals are treated with antipsychotics, they develop vacuous chewing, whic phenomenological similarities to the orobuccofacial movement of TD. Only 30-60% of rats will develop vacuous chewing. The chewing movement is enhanced after the withdrawal of antipsychotic treatment. […] (FIG. 12.)
molecule,measurement,setting,value
"Cc1cc(-c2ccc(S(=O)(=O)O)cc2)c2ccc3c(-c4ccc(S(=O)(=O)O)cc4)cc(C)nc3c2n1 [bathocuproine disulfonate (BC), bathocuproine disulfonate]",effect of chelating agent on hydrogen peroxide production by Vitamin C and antipsychotics,[1],significantly attenuate the production of hydrogen peroxide
OCCN1CCN(CCCN2c3ccccc3Sc3ccc(C(F)(F)F)cc32)CC1 [fluphenazine],SOD and catalase activities in the nervous system,[2],cause a decrease in SOD and catalase activities
same,dependence of hydrogen peroxide generation on copper concentration,[1]; FIG. 6,dependent on the concentration of copper
same,dependence of hydrogen peroxide generation on drug concentration,"[1]; dose response, FIG. 5",concentration dependent
Vitamin E,effect on symptoms of TD,[3],reverses the symptoms of TD
"NCCNCCNCCN [triethylenetetramine (TETA), triethylenetetramine]",effect of chelating agent on hydrogen peroxide production by Vitamin C and antipsychotics,[1],significantly attenuate the production of hydrogen peroxide
CN1CCN(C2=Nc3cc(Cl)ccc3Nc3ccccc32)CC1 [clozapine],induction of vacuous chewing,[4],only induce vacuous chewing in a small portion of the animals
